# Measurements as given in patent publication US20240197756A1, “METHODS OF TREATMENT WITH NEUROACTIVE STEROIDS” (priority 2021, published 2024).
# “Also recorded” adds a separate entry of the source.
# Tests used:
# [1] = Safety and tolerability in the multiple escalating dose study in healthy subjects; format: in vivo, human
# Method: Adverse events (AEs) were monitored throughout the duration of the study.
# To monitor for possible AEs, vital signs, hematology and clinical chemistry laboratory parameters, ECG readings, neurological examination findings, and EEG parameters and abnormal findings were recorded at each visit.
# [2] = Safety and tolerability in MDD patients (Part A); format: in vivo, human; conditions: 80 mg once daily for 14 days in MDD patients
# Method: In Part A, participants were administered daily doses of Compound 1 (45 mg Cohort and 80 mg Cohort) at 4 p.m. on Day 1 and qHS on all other study days for 7 days inpatient followed by 7 days outpatient (with subsequent Cohorts receiving up to 120 mg qHS). Participants checked into the clinic on Day 1. During this period the following assessments were performed: adverse event assessments, vital signs, physical examinations, blood and urine samples for safety assessments, ECGs, C-SSRS assessments, blood samples for PK, and efficacy assessments (HAM-D, MADRS, HAM-A, CGI [CGI-S and CGI-I], PSQI, and SDQ). Baseline assessments occurred on Day 1 prior to administration of study drug. On Day 8, prior to discharge, participants were supplied with sufficient Compound 1 to complete 7 days of dosing.
# [3] = Cohorts 1-3, 15-60 mg QD for 14 days
smiles,measurement,setting,value
"COC[C@@]1(O)CC[C@@]2(C)[C@@H](CC[C@@H]3[C@@H]2CC[C@]2(C)[C@@H](C(=O)Cn4ccnc4)CC[C@@H]32)C1 [Compound 1, 3α-Hydroxy-3β-methoxymethyl-21-(1′-imidazolyl)-5α-pregnan-20-one]",Serious Adverse Events,[1]; [3],no Serious Adverse Events
same,"vital sign, ECG, or lab abnormalities",[1]; [3],"no clinically relevant vital sign, ECG, or lab abnormalities"
same,maximum tolerated dose and serious adverse events,"[1]; MAD study, after a dose of 60 mg, beta power increase up to 2.8-fold",without achieving a maximum tolerated dose (MTD) or demonstrating any serious adverse events (SAEs)
same,tolerability,[2],well tolerated with no change in Adverse Event profile; also recorded: well-tolerated
